Measurements: PMC9964602, “Myxinidin-Derived Peptide against Biofilms Caused by Cystic Fibrosis Emerging Pathogens” (International Journal of Molecular Sciences, 2023)
Where two headings read alike, the source gives them in different places. Where a SMILES comes first, the peptide text is derived from it. [ ]: non-standard residue; d: D form. Dap = NC[C@H](N)C(=O)O; Aib = CC(C)(N)C(=O)O

Assays:
A. xylosoxidans DSM 2402 = experiment: microbe, parasite or virus in culture; type: cell-based, Achromobacter xylosoxidans
Description: (§1) Candida albicans ATCC 90028, Achromobacter xylosoxidans DSM 2402, and Stenotrophomonas maltophilia DSM 50170 were used in this study. Microbial strains were grown in Tryptone Soya Broth (TSB, VWR chemicals, Leuven, Belgium), supplemented with 0.1% glucose only for C. albicans at 37 °C overnight. Then, cells were harvested by centrifugation at 5000 rpm, 4 °C for 10 min, followed by washing in Phosphate Buffered Saline (PBS, Oxoid Ltd., Basingstoke, UK) three times. Standardized 1 × 10^6 CFU mL^-^1 inoculum was used in the next experiments. The minimum inhibitory concentrations (MIC) of WMR-4 against C. albicans, A. xylosoxidans, and S. maltophilia were determined using a broth microdilution method accord-ing to CLSI M27-A3 and […]-A9 guidelines. Concentrations of WMR-4 from 0.5 to 50 μM were added to wells of a 96-well microplate containing 1 × 10^6 CFU mL^-1 cells. Fluconazole at a concentration range from 1 to 50 μM and meropenem at a concentration range from 10 to 200 μM were used as control. The plate was incubated at 37 °C for 24/48 h due to poor growth after 24 h for the two bacterial species. Next, the absorbance at 590 nm was read using a microplate reader (Synergy H4; BioTek Instruments, Agilent Technologies, Winooski, VT, USA). MIC value was defined as a lowest concentration of WMR and analogues able to inhibit total microbial growth.

S. maltophilia DSM 50170 = experiment: microbe, parasite or virus in culture; type: cell-based, Stenotrophomonas maltophilia
Description: as §1

in vitro = in vitro ADME, bovine; settings: serum
Description: The proteolytic stability of WMR and WMR-4 were determined in bovine serum acquired from ThermoFisher Scientific (Milan, Italy). Peptides were dissolved in sterile water to prepare stock solutions, then incubated with 50% of bovine serum to obtain a final concentration of 200 μM [69]. The mixture peptide/serum was incubated at 37 ± 1 °C for different times (0.25, 0.50, 1, 2, 3, 4, 5, and 16 h). At each pre-established time, an aliquot of reaction was taken, and acetonitrile was added to favor the precipitation of serum proteins. Then, the solution was cooled at 4 °C and centrifuged for 15 min at 13,000× g rpm. The supernatant was analyzed by HPLC in a Phenomenex Jupiter 4 μm Proteo 90 Å 250 × 21.20 mm column with a linear gradient of solvent B (0.1% TFA in acetonitrile) in solvent A (0.1% TFA in water) from 5 to 70% in 20 min with UV detection at 210 nm and a flow rate of 1 mL/min.

C. albicans ATCC 90028 = type: cell-based, Candida albicans; settings: ATCC 90028, 48 h
Description: as §1

Row | SMILES | MIC (A. xylosoxidans DSM 2402; DSM 2402, 48 h) | MIC (S. maltophilia DSM 50170; DSM 50170, 48 h) | also measured
1 | CC[C@H](C)[C@H](NC(=O)CNC(=O)[C@@H](N)Cc1c[nH]c2ccccc12)C(=O)N[C@@H](CCCNC(=N)N)C(=O)N[C@@H](CCCNC(=N)N)C(=O)N[C@H](C(=O)N[C@@H](CC(C)C)C(=O)N[C@@H](CCCCN)C(=O)N[C@@H](Cc1ccc(O)cc1)C(=O)NCC(=O)N[C@@H](CCCCN)C(=O)N[C@@H](CCCNC(=N)N)C(=O)N[C@H](CO)C(=O)N[C@@H](CCCCN)C(N)=O)[C@@H](C)CC [WMR-2] (H-WGIRRILKYGKR[dS]K-NH2) | > 50 µM | > 50 µM | 
2 | C[C@@H](O)[C@H]1C(=O)N2C(C(=O)O)=C(S[C@@H]3CN[C@H](C(=O)N(C)C)C3)[C@H](C)[C@H]12 [MEM, meropenem, reference compound] |  |  | MIC (A. xylosoxidans DSM 2402; Achromobacter xylosoxidans, DSM2402, A. xylosoxidans DSM 2402, control drug, value outside parentheses, read-out: MIC): 65 µg/mL; MIC (S. maltophilia DSM 50170; Stenotrophomonas maltophilia, DSM50170, S. maltophilia DSM 50170, control drug, value outside parentheses, read-out: MIC): 130 µg/mL
3 | CC[C@H](C)[C@H](NC(=O)CNC(=O)[C@@H](N)Cc1c[nH]c2ccccc12)C(=O)N[C@@H](CCCNC(=N)N)C(=O)N[C@@H](CCCNC(=N)N)C(=O)N[C@H](C(=O)N[C@@H](CC(C)C)C(=O)N[C@@H](CCCCN)C(=O)N[C@@H](Cc1ccc(O)cc1)C(=O)NCC(=O)N[C@@H](CCCCN)C(=O)N[C@@H](CCCNC(=N)N)C(=O)N[C@@H](CO)C(=O)N[C@H](CCCCN)C(N)=O)[C@@H](C)CC [WMR-1] (H-WGIRRILKYGKRS[dK]-NH2) | > 50 µM | > 50 µM | 
4 | CC[C@H](C)[C@H](NC(=O)CNC(=O)[C@@H](N)Cc1c[nH]c2ccccc12)C(=O)N[C@@H](CCCNC(=N)N)C(=O)N[C@@H](CCCNC(=N)N)C(=O)N[C@H](C(=O)N[C@@H](CC(C)C)C(=O)N[C@@H](CCCCN)C(=O)N[C@@H](Cc1ccc(O)cc1)C(=O)NCC(=O)N[C@@H](CCCCN)C(=O)N[C@@H](CCCNC(=N)N)C(=O)N[C@@H](CO)C(=O)N[C@@H](CN)C(N)=O)[C@@H](C)CC [WMR-5] (H-WGIRRILKYGKRS[Dap]-NH2) | 25 µM | 25 µM | 
5 | CC[C@H](C)[C@H](NC(=O)[C@H](CCCNC(=N)N)NC(=O)[C@H](CCCNC(=N)N)NC(=O)[C@@H](NC(=O)C(C)(C)NC(=O)[C@@H](N)Cc1c[nH]c2ccccc12)[C@@H](C)CC)C(=O)N[C@@H](CC(C)C)C(=O)N[C@@H](CCCCN)C(=O)N[C@@H](Cc1ccc(O)cc1)C(=O)NCC(=O)N[C@@H](CCCCN)C(=O)N[C@@H](CCCNC(=N)N)C(=O)N[C@@H](CO)C(=O)N[C@@H](CCCCN)C(N)=O [WMR-3] (H-W[Aib]IRRILKYGKRSK-NH2) | > 50 µM | > 50 µM | 
6 | CC[C@H](C)[C@H](NC(=O)CNC(=O)[C@@H](N)Cc1c[nH]c2ccccc12)C(=O)N[C@@H](CCCNC(=N)N)C(=O)N[C@@H](CCCNC(=N)N)C(=O)N[C@H](C(=O)N[C@@H](CC(C)C)C(=O)N[C@@H](CCCCN)C(=O)N[C@@H](Cc1ccc(O)cc1)C(=O)NCC(=O)N[C@@H](CCCCN)C(=O)N[C@@H](CCCNC(=N)N)C(=O)N[C@@H](CO)C(=O)N[C@@H](CCCCN)C(N)=O)[C@@H](C)CC [WMR] (H-WGIRRILKYGKRSK-NH2) | 50 µM | 50 µM | remaining at 0.25 h, 200 μM (in vitro): 75%; remaining at 0.5 h, 200 μM (in vitro): 75%; remaining at 1 h, 200 μM (in vitro): 68%; remaining at 2 h, 200 μM (in vitro): 53%; remaining at 3 h, 200 μM (in vitro): 36%; remaining at 5 h, 200 μM (in vitro): 20%
7 | CC[C@H](C)[C@H](NC(=O)[C@H](CCCNC(=N)N)NC(=O)[C@H](CCCNC(=N)N)NC(=O)[C@@H](NC(=O)C(C)(C)NC(=O)[C@@H](N)Cc1c[nH]c2ccccc12)[C@@H](C)CC)C(=O)N[C@@H](CC(C)C)C(=O)N[C@@H](CCCCN)C(=O)N[C@@H](Cc1ccc(O)cc1)C(=O)NCC(=O)N[C@@H](CCCCN)C(=O)N[C@@H](CCCNC(=N)N)C(=O)N[C@H](CO)C(=O)N[C@H](CCCCN)C(N)=O [WMR-4] (H-W[Aib]IRRILKYGKR[dS][dK]-NH2) | 25 µM | 25 µM | remaining at 5 h, 200 μM (in vitro): 70%; remaining at 16 h, 200 μM (in vitro): ~30%; MIC (C. albicans ATCC 90028): 50 µM
